The text below walks through data of patent US20080021070A1, “PYRIDINE DERIVATIVES, PREPARATION AND THERAPEUTIC APPLICATION THEREOF” (SANOFI-AVENTIS, priority 2004, published 2008).

As to `Cc1nc(-c2ccc(Cl)cc2)c(-c2ccc(Cl)cc2Cl)cc1CNS(=O)(=O)c1ccc(C(F)(F)F)cc1`, the melting point was 98 °C.
The value for `Cc1nc(-c2ccc(Cl)cc2)c(-c2ccc(Cl)cc2Cl)cc1CNC(=O)c1cc2ccccc2[nH]1` [Compound 3, N-{[-6-(4-chlorophenyl)-5-(2,4-dichlorophenyl)-2-methylpyridin-3-yl]methyl}-1H-indole-2-carboxamide] was 135.5 °C.
